Results reported in US7842707B2, “Peptidase inhibitors” (Nuada, LLC, priority 2004, dated 2010).

Target: T1, Porcine dipeptidyl peptidase IV (Sus scrofa, UniProt P22411)
T1 construct: purchased Sigma D-7052
Assay: Inhibition of dipeptidyl peptidase IV (DPP-IV) activity, Ala-Pro-AFC fluorimetric assay
Format: biochemical
Conditions: for inhibition at 0.1 µM: test compound at 100 nM, read-out: Percent Inhibition of DPP-IV at 100 nM; for inhibition at 0.1 µM / inhibition at 1 µM: in duplicate; for inhibition at 1 µM: test compound at 1 uM, read-out: Percent Inhibition of DPP-IV at 1 uM; for IC50: 8 point concentration curves in duplicate, Ala-Pro-AFC 20 μM, Tris-HCl pH 8.0, 37° C.
Protocol: Porcine dipeptidyl peptidase IV (Sigma, D-7052) is used. Test compound and/or vehicle is pre-incubated with enzyme (70 μU ? /ml) in Tris-HCl pH 8.0 for 15 minutes at 37° C. Ala-Pro-AFC (20 μM) is then added for a further 30 minutes incubation period. The concentration of proteolytic product, AFC, is then read spectrofluorimetrically. 8 point concentration curves in duplicate are used to calculate IC50 values, or percent inhibition is measured in duplicate at two dose levels.

T1 sequence (P22411 whole entry): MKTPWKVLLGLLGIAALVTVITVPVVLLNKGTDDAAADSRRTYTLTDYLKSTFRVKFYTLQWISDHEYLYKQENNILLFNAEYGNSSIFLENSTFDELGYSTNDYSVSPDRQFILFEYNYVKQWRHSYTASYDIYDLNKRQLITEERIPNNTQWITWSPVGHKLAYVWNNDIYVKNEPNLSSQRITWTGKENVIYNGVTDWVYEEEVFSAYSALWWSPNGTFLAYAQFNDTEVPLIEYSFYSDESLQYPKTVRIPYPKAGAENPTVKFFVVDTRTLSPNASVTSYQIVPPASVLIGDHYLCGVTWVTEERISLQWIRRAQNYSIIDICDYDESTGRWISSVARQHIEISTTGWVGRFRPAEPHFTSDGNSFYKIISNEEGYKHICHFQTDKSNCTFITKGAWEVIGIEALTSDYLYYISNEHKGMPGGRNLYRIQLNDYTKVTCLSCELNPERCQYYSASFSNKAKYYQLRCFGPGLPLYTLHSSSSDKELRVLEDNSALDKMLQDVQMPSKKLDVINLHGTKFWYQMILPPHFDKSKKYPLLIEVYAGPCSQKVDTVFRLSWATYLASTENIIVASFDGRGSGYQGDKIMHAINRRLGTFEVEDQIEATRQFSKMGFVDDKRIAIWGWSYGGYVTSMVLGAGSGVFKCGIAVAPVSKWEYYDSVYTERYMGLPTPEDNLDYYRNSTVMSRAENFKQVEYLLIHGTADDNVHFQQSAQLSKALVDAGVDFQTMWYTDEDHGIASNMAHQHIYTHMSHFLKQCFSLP

| SMILES | inhibition at 0.1 µM [%] | inhibition at 1 µM [%] | IC50 [nM] |
| --- | --- | --- | --- |
| CCS(=O)(=O)NC12CC3CC(CC(NCC(=O)N4CCC[C@H]4C#N)(C3)C1)C2 [Example 2, (S)-1-[(3-ethanesulfonamido-1-adamantyl)amino]acetyl-2-cyano-pyrrolidine] | 60 | 92 | – |
| CS(=O)(=O)NC12CC3CC(CC(NCC(=O)N4CCC[C@H]4C#N)(C3)C1)C2 [Example 1, (S)-1-[(3-methanesulfonamido-1-adamantyl)amino]acetyl-2-cyano-pyrrolidine] | – | – | 59 |
| N#C[C@@H]1CCCN1C(=O)CNC12CC3CC(C1)CC(NS(=O)(=O)CC(F)(F)F)(C3)C2 [Example 3, (S)-1-[(3-(2,2,2-trifluoro)-ethanesulfonamido-1-adamantyl)amino]acetyl-2-cyano-pyrrolidine] | 68 | 94 | – |

Further lines, results first:

| inhibition at 0.1 µM [%] | inhibition at 1 µM [%] | IC50 [nM] | SMILES |
| --- | --- | --- | --- |
| – | – | 61 | CN(C)S(=O)(=O)NC12CC3CC(CC(NCC(=O)N4CCC[C@H]4C#N)(C3)C1)C2 [Example 6, N′-(3-(2-((S)-2-cyanopyrrolidin-1-yl)-2-oxoethylamino)-adamantyl)-N,N-dimethyl-sulfamide] |
| 96 | 99 | – | N#Cc1ccc(NC23CC4CC(CC(NCC(=O)N5CCC[C@H]5C#N)(C4)C2)C3)nc1 [Example 5, 6-(3-(2-((S)-2-cyanopyrrolidin-1-yl)-2-oxoethylamino)-adamantylamino)nicotinonitrile] |
| – | – | 46 | N#C[C@@H]1CCCN1C(=O)CNC12CC3CC(C1)CC(NS(=O)(=O)c1ccc(F)cc1)(C3)C2 [Example 4, (S)-1-[(3-(4-fluorophenyl)sulfonamido-1-adamantyl)amino]acetyl-2-cyano-pyrrolidine] |
| – | – | 70 | N#C[C@@H]1CCCN1C(=O)CNC12CC3CC(C1)CC(NC(=O)NS(=O)(=O)c1ccc(F)cc1)(C3)C2 [Example 7, 1-(3-(2-((S)-2-cyanopyrrolidin-1-yl)-2-oxoethylamino)-adamantyl)-3-(4-fluorophenylsulfonyl)urea] |
